In patent publication US6713268B2, “Methods of identifying ocular hypotensive compounds having reduced hyperpigmentation” (Allergan, Inc., priority 2001, dated 2004):
“Also recorded” adds a separate entry of the source. Where two headings read alike, the source gives them in different places.

Legend:
[1] = test system: S91 melanoma cells co-cultured with human dermal fibroblasts; assay: DOPA oxidase (tyrosinase) activity in S91 melanoma cells in transwell co-culture with human dermal fibroblasts; type: cell-based; details: increasing concentrations 10^−9 to 10^−5 M, 4 days
Protocol: (§1) Human dermal fibroblasts and S91 melanoma cells are cultured in low-glucose Dulbecco's Modified Eagle Medium (DMEM) containing 10% fetal calf serum (FCS) supplemented with 2 mM L-glutamine, 100 mg/l sodium pyruvate, 100 U/ml penicillin G, 100 […] and 250 ng/ml amphotericin B at 37° C. with 5% CO2. For tyrosinase and melanogenesis assays, the FCS concentration is reduced to 1% during the incubation period.
(§2) S91 cells are plated at 10^5 cells/well in 6-well plates and allowed to attach overnight. For transwell studies, cells from a human dermal fibroblast cell line are plated on the transwell insert at 10^3 cells/well and allowed to attach overnight. Melanoma cells are plated in an initial excess over fibroblasts; preferably at a ratio between about 1:30 and about 1:1000, more preferably at a ratio between about 1:50 and about 1:300; most preferably at a ratio of about 1:100. For primary cells, cells are cultured at a ratio of fibroblasts to melanocytes of about 1:2 to about 1:50; preferably about 1:5 to about 1:20, even more preferably about 1:10. The added test agents generally stimulate fibroblast proliferation; thus the use of the transwell permits separate enumeration of the melanocytes.
(§3) Test agents are added every other day of the assay period, with no exchange of medium.
(§4) For DOPA oxidase (tyrosinase) activity, the cells were incubated for four days in this case and the S91 cells were collected in a lysis buffer. The cell suspension was subjected to one freeze/thaw cycle (−80° C.) and vortexed to extract the cytosolic cell contents. After centrifugation for 30 minutes at 16,000×g at 4° C., aliquots of the supernatant were used in a Bradford assay to determine protein concentration or incubated with d-DOPA or l-DOPA as substrates. The optical density was measured for up to 6 hours at 490 nm.
Cloudman S91 melanoma cells (ATCC CCL-53.1) were cultured either in the presence or absence of human dermal fibroblast cells (ATCC CRL-2097) as described above. The added drugs were: arachidonic acid, anandamide, Compound C, Compound A, Compound D, Compound […], and Compound E.

S91 melanoma cells [2] = assay: DOPA oxidase (tyrosinase) activity in S91 melanoma cells cultured alone; type: cell-based
Protocol: as §1, §2, §3, §4
Cloudman S91 melanoma cells (ATCC CCL-53.1) were cultured either in the presence or absence of human dermal fibroblast cells (ATCC CRL-2097) as described above. […]

iris [3] = details: monkey, in vivo
Protocol: (§5) The other eye is left untreated. A total of 8 animals is treated within each treatment group. At the end of the one year study period darkening of the treated eye is compared to a photograph of the same eye prior to treatment, and scored using the following scale:

[4] = test system: S91 "Cloudman" melanoma cell line; details: cited from earlier work
melanocytes = details: cited from earlier work
S91 cells = details: native S91 cells; cited from earlier work
FP receptor [5] = biological target: T1, FP receptor (Homo sapiens, UniProt P43088); parameters: host or cells: S91 'Cloudman' melanoma cells, stably transfected; details: cited from earlier work
T1 sequence (P43088 whole entry): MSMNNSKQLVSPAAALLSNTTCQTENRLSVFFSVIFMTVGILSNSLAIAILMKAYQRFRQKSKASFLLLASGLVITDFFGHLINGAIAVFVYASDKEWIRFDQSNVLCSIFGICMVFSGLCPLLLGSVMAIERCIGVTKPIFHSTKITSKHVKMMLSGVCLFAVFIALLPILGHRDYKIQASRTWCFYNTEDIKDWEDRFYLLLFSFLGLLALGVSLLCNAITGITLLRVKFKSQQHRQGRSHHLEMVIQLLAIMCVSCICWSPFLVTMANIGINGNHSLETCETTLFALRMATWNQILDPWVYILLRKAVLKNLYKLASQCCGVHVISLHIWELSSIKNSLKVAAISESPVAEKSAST

S91 melanoma cells [6] = assay: Cell proliferation assay of S91 melanoma cells; type: cell-based
Protocol: as §1, §2, §3
For the cell proliferation assay, melanoma cells were washed with Hanks BSS, trypsinized and counted with a hemacytometer.

FP receptor [7] = biological target: T1, FP receptor; assay: FLIPR calcium signaling in HEK-293 cells stably transfected with the human FP receptor; type: cell-based; parameters: expressed in transfected cells; host or cells: HEK-293; details: HEK-293 human FP; for concentration at which FP receptor stimulation plateaus / concentration at which the FP receptor is stimulated (calcium signal): FLIPR, Fluo-4; for concentration at which the FP receptor is stimulated (calcium signal): onset of effect; for stimulation of the human FP receptor: calcium signal, about 10^−11 to 10^−8 M
Protocol: Human embryonic kidney cells of line HEK-293 are stably transfected with an expression vector encoding the human FP receptor. Cells were cultured in low Glucose Dulbecco's Modified Eagles Medium containing 10% fetal calf serum, 2 mM L-glutamine, 100 mg/l sodium pyruvate, 100 U/ml penicillin G, […] streptomycin, 250 μg/ml G418 200 μg/ml hygromycin and 250 ng/ml amphotericin B at 37° C. with 5% CO2. Cells were seeded on poly-D-lysine-coated 96-well plates at 5000/well, and cultured overnight before the experiment. The cells are cultured in the presence, respectively, of: latanoprost-free acid, fluprostenol, Compound A, Compound B, and assayed using a FLIPR (fluorescence imaging plate reader) using the calcium activated fluorescent dye Fluo-4 as an indicator of free intracellular calcium. As stimulation of the FP receptor is known to cause in increase in free intracellular calcium release, this experiment is designed to determine when the test compounds are capable of stimulating the human FP receptor.

S91 melanoma cells [8] = assay: Melanin assay in S91 cells; type: cell-based; details: S91 cells not in transwell cultures
Protocol: as §1
as §2, with “The added test agents generally stimulate fibroblast proliferation; thus the use of the transwell permits separate enumeration of the melanocytes.” left out
For the melanin assay, cells were incubated for 5 days. […] After centrifugation for 30 min at 16,000×g at room temperature, the optical density of the supernatant was measured at 475 nm and compared to a standard curve obtained with synthetic melanin.

iris [9] = details: patients; cited from earlier work
iris [10] = assay: One year topical monkey study, darkening of the iris; details: once daily 35 microliter drop in one eye for one year; scale 0-3; untreated eyes baseline 1
Protocol: as §5

## CCCCC/C=C\C/C=C\C/C=C\C/C=C\CCCC(=O)O [arachidonic acid]
[1]
  tyrosinase (DOPA oxidase) activity: significant increase
S91 melanoma cells [2]; S91 without fibroblasts, increasing concentrations 10^−9 to 10^−5 M, 4 days
  tyrosinase (DOPA oxidase) activity: smaller increase

## CCNC(=O)CCC/C=C\C[C@@H]1[C@@H](/C=C/[C@@H](O)CCc2ccccc2)[C@H](O)C[C@@H]1O [Compound A]
[1]
  tyrosinase (DOPA oxidase) activity: no significant changes
Iris [3]
  darkening of the treated eye (iris), score: about 1.1

## melanocyte-stimulating hormone [MSH]
[4]
  melanogenesis / melanin production: able to simulate melanogenesis
melanocytes
  activity of tyrosinase: appears to stimulate
  expression or activity of TRP2 and TRP1: does not increase

## CCCCC[C@H](O)/C=C/[C@@H]1[C@@H](C/C=C\CCCC(=O)O)[C@@H](O)C[C@H]1O [PGF2α]
[4]
  melanogenesis / melanin production: only at quite high concentrations
S91 cells
  calcium signal: failed to stimulate a calcium signal
FP receptor [5]; FP receptor transfectants
  DOPA oxidase (tyrosinase) activity and melanin formation compared with native S91 cells: indistinguishable
FP receptor [5]; FP receptor transfected S91 cells
  calcium signal: did not generate a calcium signal

## O=C(O)CCC/C=C\C[C@@H]1[C@@H](/C=C/[C@@H](O)COc2cccc(C(F)(F)F)c2)[C@H](O)C[C@@H]1O (racemic) [fluprostenol]
[1]
  tyrosinase (DOPA oxidase) activity: stimulate increased production of tyrosinase; also recorded: dose-dependent effect
S91 melanoma cells [6]; 10^−9 to 10^−5 M, with or without fibroblast co-cultures
  S91 cell proliferation: No effect
FP receptor [7]
  concentration at which FP receptor stimulation plateaus: about 10^−8 M
  concentration at which the FP receptor is stimulated (calcium signal): about 10^−11 M
  stimulation of the human FP receptor: stimulate

## CC(C)OC(=O)CCC/C=C\C[C@@H]1[C@@H](CC[C@@H](O)CCc2ccccc2)[C@H](O)C[C@@H]1O [latanoprost]
[1]
  tyrosinase (DOPA oxidase) activity: stimulate increased production of tyrosinase; also recorded: dose-dependent effect
S91 melanoma cells [2]; S91 cells not in transwell cultures, 10^−5 M
  tyrosinase activity: enhancement
S91 melanoma cells [2]; S91 cells not in transwell cultures, up to 10^−6 M
  DOPA oxidase activity: no appreciable change
S91 melanoma cells [6]; 10^−5 M, with or without fibroblasts
  S91 cell proliferation: decrease
S91 melanoma cells [6]; 10^−9 to 10^−6 M, with or without fibroblasts
  S91 cell proliferation: little effect
S91 melanoma cells [8]; 10^−5 M
  melanin formation: enhancement
S91 melanoma cells [8]; up to 10^−6 M
  melanin formation: no appreciable change
Iris [9]
  human eyes with increase in brown pigment in the iris: 5-15%
Iris [10]
  darkening of the treated eye (iris), score: 2
FP receptor [7]
  concentration at which FP receptor stimulation plateaus: about 10^−8 M
  concentration at which the FP receptor is stimulated (calcium signal): about 10^−11 M
  stimulation of the human FP receptor: stimulate

## CCCCC/C=C\C/C=C\C/C=C\C/C=C\CCCC(=O)NCCO [anandamide]
[1]
  tyrosinase (DOPA oxidase) activity: no significant increase
